Source: ChEMBL document CHEMBL5532680, “Identification of a Sonically Activated Degrader of Methionine Adenosyltransferase 2A by an in Silico Approach Assisted with the Hole-Electron Analysis” (J Med Chem, 2024)
The source made the active and inactive calls. No cut-off for these calls is given here.

What was measured:
[1] = test system: HCT-116; assay: Antiproliferative activity against wild type human HCT-116 cells at less than 1 uM incubated for 5 days by MTT method; format: functional, cell-based; details: time 5.0 day
[2] = Drug localization in human HCT-116 cells cytoplasm assessed as bright red fluorescence at 1 uM by Hoechst 33342 staining based confocal assay; format: ADME, cell-based; details: hct-116, 1 µM
[3] = test system: HCT-116; assay: Antiproliferative activity against wild type human HCT-116 cells preincubated with AG-270 followed by compound addition; format: functional, cell-based
[4] = test system: HCT-116; assay: Induction of ROS generation in human HCT-116 cells at 0.001 to 1 uM incubated for 6 hrs by DCFH-DA staining based flow cytometry analysis; format: functional, cell-based; details: dose 0.001-1 µM
[5] = target: T1, S-adenosylmethionine synthase isoform type-2 (Homo sapiens, UniProt P31153); assay: Induction of MAT2A degradation in human HCT-116 cells incubated for 4 hrs by Western blotting assay; format: cell-based
Target sequence in this assay (P31153 whole entry, looked up, canonical isoform): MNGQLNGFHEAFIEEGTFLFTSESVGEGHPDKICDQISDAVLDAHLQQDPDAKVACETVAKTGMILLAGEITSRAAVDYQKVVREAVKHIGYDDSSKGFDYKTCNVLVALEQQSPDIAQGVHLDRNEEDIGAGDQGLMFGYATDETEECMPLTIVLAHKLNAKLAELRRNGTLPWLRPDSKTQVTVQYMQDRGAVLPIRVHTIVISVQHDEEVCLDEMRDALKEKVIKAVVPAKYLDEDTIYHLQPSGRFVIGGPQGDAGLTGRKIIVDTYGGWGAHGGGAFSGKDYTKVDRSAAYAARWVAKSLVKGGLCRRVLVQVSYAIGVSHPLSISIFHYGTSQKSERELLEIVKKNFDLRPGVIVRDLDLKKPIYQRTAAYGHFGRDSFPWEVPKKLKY

[6] = target: T1, S-adenosylmethionine synthase isoform type-2; assay: Induction of MAT2A degradation in human HCT-116 cells preincubated for 4 hrs followed by 1.0 MHz, 0.8W/cm2 ultrasound treatment for 0.5 mins by Western blotting assay; format: cell-based
Target sequence in this assay (P31153 whole entry, canonical isoform): as the sequence (P31153 whole entry, looked up, canonical isoform) above

[7] = target: T1, S-adenosylmethionine synthase isoform type-2; assay: Induction of MAT2A degradation in human HCT-116 cells assessed as degradation maximum at higher than 1 uM preincubated for 4 hrs followed by 1.0 MHz, 0.8W/cm2 ultrasound treatment for 0.5 mins by Western blotting assay relative to control; format: cell-based; details: time 240.5 min
Target sequence in this assay (P31153 whole entry, looked up, canonical isoform): as above

[8] = target: T1, S-adenosylmethionine synthase isoform type-2; assay: Induction of MAT2A degradation in human HCT-116 cells assessed as MAT2A level at 0.1 uM preincubated for 4 hrs followed by 1.0 MHz, 0.8W/cm2 ultrasound treatment for 4 mins and measured upto 24 hrs by Western blotting assay; format: cell-based; details: time <= 1684.0 min
Target sequence in this assay (P31153 whole entry, looked up, canonical isoform): as above

[9] = test system: HCT-116; assay: Antiproliferative activity against MTAP knocked out human HCT-116 cells incubated for 5 days by MTT method relative to control; format: functional; details: time 5 day
[10] = Tmax in ICR mouse at 10 mg/kg, po measured upto 24 hrs by LC-MS/MS analysis; format: ADME, organism-based; details: in vivo
[11] = AUC in ICR mouse at 1 mg/kg, iv measured upto 24 hrs by LC-MS/MS analysis; format: ADME, organism-based; details: in vivo
[12] = AUC in ICR mouse at 10 mg/kg, po measured upto 24 hrs by LC-MS/MS analysis; format: ADME, organism-based; details: in vivo
[13] = Volume of distribution at steady state in ICR mouse at 1 mg/kg, iv measured upto 24 hrs by LC-MS/MS analysis; format: ADME, organism-based; details: in vivo, read-out: Vdss
[14] = Oral bioavailability in ICR mouse at 10 mg/kg measured upto 24 hrs by LC-MS/MS analysis; format: ADME, organism-based; details: in vivo
[15] = Tmax in BALB/c mouse at 10 mg/kg, po measured upto 24 hrs by LC-MS/MS analysis; format: ADME, organism-based; details: in vivo
[16] = Cmax in BALB/c mouse at 10 mg/kg, po measured upto 24 hrs by LC-MS/MS analysis; format: ADME, organism-based; details: in vivo
[17] = Drug metabolism in BALB/c mouse blood after 24 hrs; format: ADME, tissue-based
[18] = Oral bioavailability in BALB/c mouse at 10 mg/kg measured upto 24 hrs by LC-MS/MS analysis; format: ADME, organism-based; details: in vivo
[19] = Biodistribution in MATP knocked out human HCT-116 cells xenografted in BALB/c mouse assessed as fluorescence intensity in tumor at 10 mg/kg, po measured after 24 hrs; format: ADME, organism-based; details: in vivo
[20] = Biodistribution in MATP knocked out human HCT-116 cells xenografted in BALB/c mouse assessed as fluorescence intensity in liver at 10 mg/kg, po measured after 24 hrs; format: ADME, organism-based; details: in vivo
[21] = test system: HCT-116; assay: Antitumor activity against […] knocked out human HCT-116 cells xenografted in BALB/c mouse assessed as tumor growth inhibition at 10 mg/kg, po administered once a day followed by 4 mins sonication post 6 hrs of compound administration and measured for 3 weeks; format: functional; details: HCT-116, 504 h, read-out: TGI
[22] = test system: HCT-116; assay: Antitumor activity against […] knocked out human HCT-116 cells xenografted in BALB/c mouse assessed as tumor growth inhibition at 50 mg/kg, po administered once a day for 6 hrs and measured after 3 weeks; format: functional; details: HCT-116, 504 h, read-out: TGI
[23] = test system: HCT-116; assay: Antitumor activity against […] knocked out human HCT-116 cells xenografted in BALB/c mouse assessed as tumor growth inhibition at 100 mg/kg, po administered once a day for 6 hrs and measured after 3 weeks; format: functional; details: HCT-116, 504 h, read-out: TGI
[24] = Toxicity in BALB/c mouse xenografted with human HCT-116 cells assessed as body weight loss at 10 mg/kg, po administered once a day followed by 4 mins sonication post 6 hrs of compound administration and measured for 3 weeks; format: organism-based; details: in vivo, 504 h
[25] = Toxicity in BALB/c mouse xenografted with human HCT-116 cells assessed as spleen damage at 10 mg/kg, po by H and E staining based assay; format: organism-based; details: in vivo
[26] = Toxicity in BALB/c mouse xenografted with human HCT-116 cells assessed as lung damage at 10 mg/kg, po by H and E staining based assay; format: organism-based; details: in vivo
[27] = Toxicity in BALB/c mouse xenografted with human HCT-116 cells assessed as change in liver cell nucleus size at 100 mg/kg, po by H and E staining based assay; format: organism-based; details: in vivo
[28] = Toxicity in BALB/c mouse xenografted with human HCT-116 cells assessed as heart damage at 100 mg/kg, po by H and E staining based assay; format: organism-based; details: in vivo
[29] = Toxicity in BALB/c mouse xenografted with human HCT-116 cells assessed as lung damage at 100 mg/kg, po by H and E staining based assay; format: organism-based; details: in vivo
[30] = Apparent permeability in MDCKII-MDR1 cells; format: ADME, cell-based, Canis lupus familiaris; details: dog, MDCK-MDR1
[31] = Intrinsic clearance in human liver microsomes; format: ADME, Microsome; details: read-out: CLH
[32] = target: T2, Cytochrome P450 1A2 (Homo sapiens, UniProt P05177); assay: Inhibition of CYP1A2 (unknown origin); format: ADME
T2 sequence (P05177 whole entry): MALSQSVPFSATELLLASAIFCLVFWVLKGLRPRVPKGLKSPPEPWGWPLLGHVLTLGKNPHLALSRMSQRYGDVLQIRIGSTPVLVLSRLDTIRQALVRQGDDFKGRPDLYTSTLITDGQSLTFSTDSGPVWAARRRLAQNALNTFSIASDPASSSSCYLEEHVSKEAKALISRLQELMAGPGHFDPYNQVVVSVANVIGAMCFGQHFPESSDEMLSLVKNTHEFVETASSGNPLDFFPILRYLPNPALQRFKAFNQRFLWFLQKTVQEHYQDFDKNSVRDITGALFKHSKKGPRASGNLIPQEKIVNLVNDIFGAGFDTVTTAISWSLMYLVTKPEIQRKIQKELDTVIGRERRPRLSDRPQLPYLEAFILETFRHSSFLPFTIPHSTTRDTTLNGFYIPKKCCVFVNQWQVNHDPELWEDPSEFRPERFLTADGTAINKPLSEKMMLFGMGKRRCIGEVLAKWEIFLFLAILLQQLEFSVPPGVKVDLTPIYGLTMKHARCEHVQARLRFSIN

[33] = target: Cytochrome P450 2C9 (Homo sapiens, UniProt P11712); assay: Inhibition of CYP2C9 (unknown origin); format: ADME
[34] = Inhibition of uridine glucuronyl transferase (unknown origin); set-up: species or system Homo sapiens

Chain of Cytochrome P450 2C9 (P11712 whole entry): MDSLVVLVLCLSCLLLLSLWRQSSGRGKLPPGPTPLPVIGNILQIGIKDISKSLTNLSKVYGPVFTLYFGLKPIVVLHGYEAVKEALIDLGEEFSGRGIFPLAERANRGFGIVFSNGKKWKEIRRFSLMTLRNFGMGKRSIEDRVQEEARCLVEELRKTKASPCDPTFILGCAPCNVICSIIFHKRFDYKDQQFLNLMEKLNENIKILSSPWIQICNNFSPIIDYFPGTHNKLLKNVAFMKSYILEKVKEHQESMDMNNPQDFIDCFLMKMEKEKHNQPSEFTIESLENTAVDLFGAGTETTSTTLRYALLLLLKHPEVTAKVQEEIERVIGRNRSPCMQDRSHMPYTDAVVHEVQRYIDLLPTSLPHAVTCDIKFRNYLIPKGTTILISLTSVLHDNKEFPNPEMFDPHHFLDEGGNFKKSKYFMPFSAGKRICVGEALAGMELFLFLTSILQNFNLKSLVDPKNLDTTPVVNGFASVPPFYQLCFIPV

For CCOc1ncc2cc(-c3ccc4c(c3)N3CCCC3CO4)c(=O)n(-c3ccc(OC(F)F)cc3)c2n1 (centres undefined), the Activity [1] was “inactive”, the Drug uptake [2] was “Active” and the Activity [3] was “inactive”. The Activity [4] was “Active”, the Activity [5] was “inactive” and the EC50 [6] was 360 nM. For the same compound, the Emax [7] was 76%, the Activity [8] was “Active” and the Activity [9] was 92%. It also gave a Tmax [10] of 30 min, an AUC [11] of 1267 ng·h/mL and an AUC at 24 h [12] of 9710 ng·h/mL. It also gave a Vd [13] of 3.47 L/kg, a bioavailability [14] of 77% and a Tmax [15] of 60 min. The Cmax [16] was 1380 ng/mL, the Drug metabolism [17] was “Metabolite_Detected” and the F [18] was 77%. For the same compound, the Drug uptake [19] was “Active”, the Drug uptake [20] was “Active” and the inhibition in vivo at 10 mg/kg [21] was 103%. For the same compound, the inhibition in vivo at 50 mg/kg [22] was 93.5%, the inhibition in vivo at 100 mg/kg [23] was 96.5% and the Activity [24] was “Non-Toxic”. The Activity [25] was “Non-Toxic”, the Activity [26] was “Non-Toxic” and the Activity [27] was “Toxic”. For the same compound, the Activity [28] was “Non-Toxic”, the Activity [29] was “Non-Toxic” and the Papp [30] was 13.4 ×10⁻⁶ cm/s. The CLint scaled [31] was 9.6 mL/min/kg, the IC50 [32] was greater than 50000 nM and the IC50 [33] was 31000 nM. It also gave an IC50 [34] of 800 nM.
